Here are results for eight compounds from US20020198161A1, “THERAPEUTIC USES OF ANTIOXIDANTS” (priority 1997, published 2002).

Data set [1] deals with tMEF p53+/+ cells. In words: Apoptosis / viability in E1A/Ha-ras-transformed MEF (tMEF p53+/+). Type of data set: cell-based, mouse. The settings on record: for effect on cell viability (trypan blue exclusion) / apoptosis (DNA analysis): p53+/+ tMEF; for effect on cell viability (trypan blue exclusion): 48 h, tocopherol acetate 200 μM, Trolox 200 μM, BHA 100 μM; for apoptosis (DNA analysis): chain-breaking antioxidants; for apoptosis in E1A/Ha-ras transformed cells (viability, DNA fragmentation, flow cytometry): 50 μM DMP, 20 mM OTC, 24-48 h. As to the method:
Cell Lines. MEF primary mouse embryo fibroblast cells (passage <5) and E1A/Ha-ras-transformed MEF were as in Lowe (18). […] The (Rostein, J. B. et al., 1988, Mutation Research 202:421-427) 1 mouse embryo fibroblast cell line was as in Levine (Harney, D. M. et al., 1991, Genes Dev. 5:2375-2385). BALB/c 3T3 A31 cells were obtained from the American Type Culture Collection (Bethesda, Md.). 308 papilloma cells were maintained in 0.05 mM Ca2+ EMEM medium with 10% fetal bovine serum, and all other cells were grown in DMEM medium with 10% heat-inactivated fetal bovine serum. Cell culture confluence was maintained below 80%.
(§1) Chemicals and Cell Treatments. All chemicals were obtained from Sigma, except for Trolox which was purchased from Aldrich. These compounds were freshly dissolved in medium and adjusted to neutral pH if necessary, or (for vitamin E acetate, Trolox, and BHA) first dissolved in ethanol and added to the medium. Cell viability was determined by trypan blue exclusion as a measure of cell death independent of any growth suppression by p53.
(§2) Apoptosis Assays. For fixed cells, apoptosis-associated DNA strand breaks were visualized by fluorescent in situ end-labeling as previously described (Ziegler, A. et al., 1994, Nature 372:773-776). For isolated DNA, DNA fragmentation analysis was performed (Lowe, S. W. et al., 1993, Cell 74:957-967).
(§3) For flow cytometry analysis, approximately 10^6 cells per sample were washed with ice-cold PBS and fixed in 95% ethanol. Cells were then resuspended in 1 mg/ml RNase (Sigma) for 30 min at 37° C. and stained with 0.05 mg/ml propidium iodide (Sigma) for 1 h on ice. Flow cytometric analysis was performed with a FACS Vantage flow cytometer (Becton-Dickinson). Cells were excited at 488 nm and the emission was detected through a 630/22 nm band pass filter. A minimum of 10,000 cells were analyzed for each sample. Cell cycle analysis was performed using the Modfit 5.2 software (Verity Software House). […] Cellular debris was gated out using the electronic threshold.

Data set [2] relates to tMEF p53+/+ cells. In words: GSH and total thiols in tMEF p53+/+ cells (GSH-400 kit). The format is cell-based, mouse. The conditions noted are these: 20 μM BSO 1 h preincubation then 20 μM BSO + 20 mM NAC 5 h. How it is done: FIG. 6. Analysis of GSH, total thiols, and viability in tMEF p53+/+ cells treated with BSO and/or NAC. Cells treated with both compounds were preincubated with medium containing 20 μM BSO for 1 h and then treated with medium containing 20 μM BSO and 20 mM NAC for 5 h (GSH and thiols) or for 24 h (viability).
Measurement of GSH and Total Thiols. Cells (4×106) were harvested from each sample. The GSH-400 kit (R & D Systems) was used following the manufacturer's instructions.

Data set [3] deals with MEF p53+/+ cells. The data set can be described thus: Apoptosis / viability in normal primary MEF (MEF p53+/+). The settings on record: for apoptosis in normal counterparts: normal MEF, 50 μM DMP, 20 mM OTC. The format is cell-based, mouse.
Text: (§4) Cell Lines. MEF primary mouse embryo fibroblast cells (passage <5) and E1A/Ha-ras-transformed MEF were as in Lowe (18). The 308 papilloma cell line, which has a mutant Ha-ras allele (Strickland, J. E. et al., 1988, Cancer Res. 48) and wild-type p53 (Liu, M. et al., 1995, Oncogene 10:1955-1960) were also utilized. The (Rostein, J. B. et al., 1988, Mutation Research 202:421-427) 1 mouse embryo fibroblast cell line was as in Levine (Harney, D. M. et al., 1991, Genes Dev. 5:2375-2385). BALB/c 3T3 A31 cells were obtained from the American Type Culture Collection (Bethesda, Md.). 308 papilloma cells were maintained in 0.05 mM Ca2+ EMEM medium with 10% fetal bovine serum, and all other cells were grown in DMEM medium with 10% heat-inactivated fetal bovine serum. Cell culture confluence was maintained below 80%.
as §1, §2, §3

Data set [4] concerns p53-/- tMEF and MEF cells. The data set can be described thus: Apoptosis / viability in transformed and normal primary cells from p53-/- null mice. The format is cell-based, mouse. The conditions noted are these: for p53 requirement of apoptosis induction: p53-/- versus p53+/+ transformed MEF.
Text: as §4, §1, §2

Data set [5] relates to p53+/+ colorectal carcinoma cell line RKO. The data set can be described thus: Apoptosis in colorectal carcinoma cell line RKO. The format is cell-based. The settings on record: human p53+/+ RKO cells. As to the method:
as §2

Data set [6] has as its system 308 papilloma cells. In words: Cell viability by trypan blue exclusion in 308 papilloma cells. The settings on record: NAC dose range. Type of data set: cell-based, murine.
Text: as §4, §1

Data set [7] deals with 308 papilloma cells. The data set can be described thus: Apoptosis-associated DNA strand breaks, fluorescent in situ end-labeling, 308 cells. Type of data set: cell-based, murine. The conditions noted are these: 20 mM NAC, 24 h.
Text: as §4, §2

In data set [8] the test system is p53 protein. The data set can be described thus: p53 protein level in 308 cells (Western blot). The format is cell-based, murine. The conditions noted are these: dose-dependent, within 3 to 8 hours.
Text: as §4
(§5) Northern and Western Blot Analysis. Northern and Western blot analysis were performed as previously described (Liu, M. et al., 1995, Oncogene 10:1955-1960).
A general note: A western blot detects proteins with antibodies after separation by electrophoresis.

The test system of data set [9] is p53 mRNA. In words: p53 mRNA steady-state level in 308 cells (Northern blot). The settings on record: 20 mM NAC, 5 h. The format is cell-based, murine.
Text: as §4, §5

The subject of data set [10] is p53 protein. In words: p53 protein synthesis rate in 308 cells (35S-methionine labeling). The conditions noted are these: 20 mM NAC, 5 h post-treatment. The format is cell-based, murine. As to the method: Analysis of p53 Protein Synthesis. Cultures of 308 cells were treated in the absence or presence of 20 mM NAC. At 4.5 h post-treatment, cells were incubated with methionine-free medium containing 2% dialyzed and chelexed fetal bovine serum for 0.5 h. At 5 h post-treatment, biosynthetic labeling was initiated by adding 200 μCi of ^35S-methionine per ml of methionine-free medium. The labeling was terminated at 5, 10, or 15 min. Throughout the experiment, 20 mM NAC was included in the group of NAC-treated cells. Cells were then washed twice with 10 ml of ice-cold PBS, scraped, and pelleted by centrifugation at 1500 rpm at 4° C. for 5 min. The supernatant was removed, and the cell pellet was lysed in ice-cold cell lysis buffer (0.5% Triton X-100, 300 mM NaCl, 50 mM Tris-HCl, pH 7.4, 10 μg/ml leupeptin, 0.1 mM phenylmethylsulfonyl fluoride). Aliquots of cell lysate containing equal amounts of protein (30 μg) were subjected to immunoprecipitation analysis with anti-p53 antibody PAb122 (25) and Protein A-agarose (GIBCO-BRL). The immunoprecipitated proteins were resolved on a 10% SDS-PAGE gel. The levels of synthesized p53 protein were then determined by densitometric scanning using a Hewlett-Packard ScanJet 4P Scanner and the NIH image 1.59 analysis software.

The subject of data set [11] is p53. The data set can be described thus: p53 induction in BALB/c 3T3 A31 fibroblast cell line. Type of data set: cell-based, murine. The conditions noted are these: BALB/c 3T3 A31 cells.
Text: as §4, §5

Data set [12] concerns p53 protein. In words: p53 induction in normal MEF p53+/+ cells (immunohistochemical staining). The format is cell-based, mouse. The settings on record: 20 mM NAC, 5 h. How it is done: FIGS. 2A-2C. p53-dependent apoptosis by NAC is selective for transformed cells. FIG. 2A: viability of normal (MEF) and transformed (tMEF) cells measured by trypan blue exclusion after treatment with NAC for 24 h. FIG. 2B: analysis of DNA fragmentation from tMEF cells exposed to NAC. FIG. 2C: immunohistochemical staining of p53 protein in p53+/+ MEF cells after 5 h exposure to 20 mM NAC.
as §4

Data set [13] has as its system DNA. The settings on record: literature references; cited from earlier work.

Entries after “also recorded” stand apart in the source; their conditions may differ. A value given as a limit tells only on which side of the number the result lay.

On to `CCCCS(=N)(=O)CCC(N)C(=O)O` [BSO, L-buthionine sulfoximine], for which the “effect on NAC-induced apoptosis (viability)” value in [1] (tMEF p53+/+, 20 μM BSO + 20 mM NAC 24 h) was “did not block NAC-induced apoptosis; also recorded: cannot block NAC-induced apoptosis”. In addition, in [2], the “effect on induction of cellular GSH by NAC” value is reported as “completely blocks induction of cellular GSH by NAC; also recorded: inhibits cellular GSH elevation by NAC” and the “effect on induction of total thiols by NAC” value was “only partially blocking the induction of total thiols”.
On to `CC(=O)Oc1c(C)c(C)c2c(c1C)CCC(C)(CCC[C@H](C)CCC[C@H](C)CCCC(C)C)O2` (some centres unmarked) [vitamin E acetate, tocopherol acetate], for which the “effect on cell viability (trypan blue exclusion)” value (“effect on cell viability” below) in [1] was “little effect on cell viability”; in data set [1] (listed as tocopherol acetate) it was “do not induce cell death”. Moreover, the “apoptosis (DNA analysis)” value in data set [1] is on record as “no apoptosis occurred; also recorded: did not induce p53-dependent apoptosis”.
For the compound `O=C1N[C@H](C(=O)O)CS1` [OTC, L-2-oxo-4-thiazolidinecarboxylate], in data set [1] (transformed MEF), the “apoptosis in E1A/Ha-ras transformed cells (viability, DNA fragmentation, flow cytometry)” value is “selectively induced apoptosis”. Further, the “apoptosis in normal counterparts” value in data set [3] was “not in their normal counterparts”. The “p53 requirement of apoptosis induction” value in data set [4] is “required p53”. For the same compound, the apoptosis induction entry in data set [5] is “induced apoptosis”.
Regarding `Cc1c(C)c2c(c(C)c1O)CCC(C)(C(=O)O)O2` (centres unmarked) [Trolox], in data set [1], the “effect on cell viability” value is on record as “little effect on cell viability; also recorded: do not induce cell death” and the “apoptosis (DNA analysis)” value is “no apoptosis occurred; also recorded: did not induce p53-dependent apoptosis”.
`COc1ccc(O)c(C(C)(C)C)c1` [BHA]: in [1], the “effect on cell viability” value is reported as “little effect on cell viability; also recorded: do not induce cell death” and the “apoptosis (DNA analysis)” value was “no apoptosis occurred”.
As for `OCC(S)CS` (centres unmarked) [DMP, 2,3-dimercaptopropanol], in data set [1] (transformed MEF), the “doses at which active (apoptosis induction)” value was at least 50 µM and the “apoptosis in E1A/Ha-ras transformed cells (viability, DNA fragmentation, flow cytometry)” value is “selectively induced apoptosis”. Further, the “apoptosis in normal counterparts” value in data set [3] is given as “not in their normal counterparts”. Besides, the “p53 requirement of apoptosis induction” value in data set [4] is on record as “required p53”. Moreover, the apoptosis induction result in [5] is “induced apoptosis”.
In the case of `O=C(O)CCCC[C@@H]1CCSS1` (racemic) [lipoic acid], in [1] (transformed MEF), the “apoptosis in E1A/Ha-ras transformed cells (viability, DNA fragmentation, flow cytometry)” value is recorded as “behaved similarly”. For the same compound, in data set [3], the “apoptosis in normal counterparts” value was “behaved similarly”. Further, the “p53 requirement of apoptosis induction” value in data set [4] is “required p53”. Moreover, the apoptosis induction entry in data set [5] is recorded as “induced apoptosis”.
As for `CC(=O)N[C@@H](CS)C(=O)O` [NAC, N-acetylcysteine], in data set [6], the “cell death (cell viability by trypan blue exclusion)” value is “dose-dependent cell death”. The “in situ end-labeling of DNA strand-breaks (apoptosis)” value in data set [7] was “showing in situ end-labeling of DNA strand-breaks”. Also, the “NAC-induced apoptosis (viability, DNA fragmentation)” value in data set [1] (tMEF p53+/+, NAC 24 h) is “sensitive to NAC-induced apoptosis”. Further, the “NAC-induced apoptosis (viability)” value in [3] (normal MEF p53+/+, NAC 24 h) is “strikingly resistant”; in data set [4] (transformed and normal primary cells from p53-/- null mice, NAC 24 h), “deficient in apoptosis induced by NAC”. In data set [8], the “increase of p53 protein levels” value is given as 5- to 10 fold. Besides, in data set [9], the “steady-state level of p53 mRNA vs control” value was “no major difference”. In [10], the “elevation of biosynthetic rate of p53 protein” value was about 5 fold. Moreover, the p53 induction entry is “induced p53” in [11] and “p53 was induced” in data set [12]. Besides, in data set [5], the apoptosis induction entry is listed as “induced apoptosis”. The “induction of DNA damage” value in data set [13] is “does not induce DNA damage”.
